For 19 compounds, IC50 results are on record in ChEMBL document CHEMBL4334443, “Characterization of Covalent Pyrazolopyrimidine-MKK7 Complexes and a Report on a Unique DFG-in/Leu-in Conformation of Mitogen-Activated Protein Kinase Kinase 7 (MKK7)” (J Med Chem, 2019).

A short description of the experiment: Inhibition of MKK7 beta1 S273D/T275D double mutant (unknown origin) using JNK1 K55M mutant as substrate by ADP-Glo assay. Also on record: species or system Homo sapiens. For orientation: ADP-Glo first removes unused ATP, then detects ADP through luciferase.
As a reminder, the IC50 is the midpoint of a concentration-inhibition curve. Lower therefore signals greater potency in that assay. In turn, `C=CC(=O)N1CCC[C@@H](n2nc(-c3ccc(F)cc3)c3c(N)ncnc32)C1` registered an IC50 of 154 nM.

On to `C=CC(=O)N1CCC[C@@H](n2ncc3c(N)ncnc32)C1`, for which the IC50 was 631 nM.

For the compound `N#C/C(=C\C1CC1)C(=O)N1CCC[C@@H](n2nc(-c3cnc4[nH]ccc4c3)c3c(N)ncnc32)C1`, the IC50 is above 10000 nM.

The compound `C=CC(=O)N1CCC[C@@H](n2nc(-c3ccc(C(F)(F)F)cc3)c3c(N)ncnc32)C1` registered an IC50 of 666 nM.

On to `C=CC(=O)N1CCC[C@@H](n2nc(C3CC3)c3c(N)ncnc32)C1`, for which inhibition was half-maximal at 307 nM (IC50).

In turn, `C=CC(=O)N1CCC[C@@H](n2nc(-c3ccc(Oc4ccccc4)cc3)c3c(N)ncnc32)C1` [IBRUTINIB] came in with an IC50 of 78 nM.

The compound `CCC(=O)N1CCC[C@@H](n2nc(-c3cccc(C(F)(F)F)c3)c3c(N)ncnc32)C1` had an IC50 above 10000 nM.

In the case of `C=CC(=O)N1CCC[C@@H](n2nc(-c3ccc(O)cc3)c3c(N)ncnc32)C1`, the IC50 came out at 8.6 nM.

Turning to `C=CC(=O)N1CCC[C@@H](n2nc(-c3ccccc3)c3c(N)ncnc32)C1`, 413 nM corresponded to half-maximal inhibition (IC50).

Compound `C=CC(=O)N1CCC[C@@H](n2nc(-c3cccc4ccccc34)c3c(N)ncnc32)C1` displayed an IC50 of 149 nM.

Regarding `CCC(=O)N1CCC[C@@H](n2nc(-c3ccc(F)cc3)c3c(N)ncnc32)C1`, the IC50 was above 10000 nM.

The compound `C=CC(=O)N1CCC[C@@H](n2nc(-c3cccc(C(F)(F)F)c3)c3c(N)ncnc32)C1` had an IC50 of 159 nM.

`N#C/C(=C\C1CC1)C(=O)N1CCC[C@@H](n2nc(-c3cccc(C(F)(F)F)c3)c3c(N)ncnc32)C1` gave a half-inhibitory concentration (IC50) above 10000 nM.

As to `C=CC(=O)N1CCC[C@@H](n2nc(-c3cnc4[nH]ccc4c3)c3c(N)ncnc32)C1`, the IC50 came to 19 nM.

`C=CC(=O)N1CCC[C@@H](n2nc(C#CC3CCCC3)c3c(N)ncnc32)C1` came in with an IC50 of 1570 nM.

Take `C=CC(=O)N1CCC[C@@H](n2nc(-c3ccc4ccccc4c3)c3c(N)ncnc32)C1`: the half-maximal inhibitory concentration (IC50) is 113 nM.

In the case of `C=CC(=O)N1CCC[C@@H](n2nc(-c3cn(C)c4ccccc34)c3c(N)ncnc32)C1`, the IC50 was determined as 302 nM.

Take `CN(C)C/C=C/C(=O)N1CCC[C@@H](n2nc(-c3cccc(C(F)(F)F)c3)c3c(N)ncnc32)C1`: the IC50 is 2610 nM.

In the case of `CCC(=O)N1CCC[C@@H](n2nc(-c3ccccc3)c3c(N)ncnc32)C1`, the IC50 was above 10000 nM.
